Earlier results in article PMC4862372 (Bioorganic & medicinal chemistry, 2016).

Tested on: Huh7 cells
Conditions: high-throughput screen performed by GNF

O=C(NCCc1nc(-c2ccccc2)cs1)c1ccccc1 [Compound 1, 2-(2-Benzamido)ethyl-4-phenylthiazole]
Toxicity to mammalian (Huh7) cells: non-toxic
